Active and inactive are the calls of the source. No cut-off for these calls is given here.
Tests used:
[1] = molecular target: T1, Alpha-2C adrenergic receptor (Mus musculus, UniProt Q01337); test: Binding affinity to mouse alpha-2C receptor expressed in COS7 cells; assay type: cell-based, COS-7
T1 sequence (Q01337 whole entry): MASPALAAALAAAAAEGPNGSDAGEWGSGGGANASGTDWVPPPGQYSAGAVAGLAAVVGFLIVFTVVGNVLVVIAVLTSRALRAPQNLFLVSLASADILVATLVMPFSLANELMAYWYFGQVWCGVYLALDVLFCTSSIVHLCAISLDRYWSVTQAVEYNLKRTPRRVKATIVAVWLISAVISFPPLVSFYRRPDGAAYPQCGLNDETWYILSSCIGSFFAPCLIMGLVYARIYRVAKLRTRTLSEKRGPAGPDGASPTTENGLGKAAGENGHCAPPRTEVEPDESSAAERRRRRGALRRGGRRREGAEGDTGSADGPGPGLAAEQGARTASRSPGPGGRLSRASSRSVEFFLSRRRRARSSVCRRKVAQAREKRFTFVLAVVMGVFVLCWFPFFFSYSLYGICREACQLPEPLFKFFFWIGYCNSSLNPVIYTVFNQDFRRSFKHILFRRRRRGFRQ

[2] = molecular target: T2, Alpha-2A adrenergic receptor (Mus musculus, UniProt Q01338); test: Binding affinity to mouse alpha-2A receptor expressed in COS7 cells; assay type: cell-based, COS-7
T2 sequence (Q01338 whole entry): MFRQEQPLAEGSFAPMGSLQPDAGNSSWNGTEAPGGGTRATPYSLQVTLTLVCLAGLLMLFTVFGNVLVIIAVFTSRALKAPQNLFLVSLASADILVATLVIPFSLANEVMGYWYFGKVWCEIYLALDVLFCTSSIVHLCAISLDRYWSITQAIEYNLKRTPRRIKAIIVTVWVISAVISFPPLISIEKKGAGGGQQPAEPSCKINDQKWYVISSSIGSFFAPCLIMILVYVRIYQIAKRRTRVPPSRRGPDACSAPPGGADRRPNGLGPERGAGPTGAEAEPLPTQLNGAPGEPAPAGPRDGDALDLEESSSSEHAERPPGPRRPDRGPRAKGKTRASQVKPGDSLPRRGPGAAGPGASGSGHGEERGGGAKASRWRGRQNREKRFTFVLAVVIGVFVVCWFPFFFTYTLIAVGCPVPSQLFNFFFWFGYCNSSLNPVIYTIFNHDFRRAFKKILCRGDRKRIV

Mus musculus [3] = test: Reduction in […]-induced tactile hypersensitivity in C57BL/6 mouse at 1 ug/kg, po relative to control; assay type: functional; set-up: scale not given: the % may be the effect or the level left
Mus musculus [4] = test: Induction of sedation in C57BL/6 mouse at 100 to 1000 ug/kg, po relative to control; assay type: organism-based; conditions: in vivo
Mus musculus [5] = test: Reduction in […]-induced tactile hypersensitivity in C57BL/6 mouse at 1 ug/kg, ip relative to control; assay type: functional; set-up: scale not given: the % may be the effect or the level left
Mus musculus [6] = test: Induction of sedation in C57BL/6 mouse at 100 to 1000 ug/kg, ip relative to control; assay type: organism-based; conditions: in vivo
Mus musculus [7] = test: Reduction in sulprostone-induced tactile hypersensitivity in C57BL/6 mouse at 0.1 to 1000 ug/kg, po; assay type: functional
Mus musculus [8] = test: Induction of sedation in C57BL/6 mouse at 0.1 to 1000 ug/kg, po; conditions: in vivo
Mus musculus [9] = test: Reduction in […]-induced tactile hypersensitivity in C57BL/6 mouse at 10 ug/kg, ip relative to control; assay type: functional; set-up: scale not given: the % may be the effect or the level left
Mus musculus [10] = test: Induction of sedation in C57BL/6 mouse at 100 ug/kg, ip relative to control; assay type: organism-based; conditions: in vivo, 0.1 mg/kg

`NC[C@H](O)c1ccc(O)c(O)c1` [NOREPINEPHRINE] gave a Ki [1] of 650 nM and a Ki [2] of 5.8 µM.

In the case of `Cc1cccc([C@H](C)c2c[nH]c(=S)[nH]2)c1C` [REZATOMIDINE], the Activity (Mus musculus [3]) is reported as 50%, the Activity (Mus musculus [4]) is reported as < 30% and the Activity (Mus musculus [5]) is reported as 50%. The Activity (Mus musculus [6]) was < 30%, the Activity (Mus musculus [7]) was “Active” and the Activity (Mus musculus [8]) was “Non-Toxic”.

With `OCC1=CCCC(Cc2c[nH]cn2)C1` (stereo not given) the Activity (Mus musculus [9]) was >50% and the Activity (Mus musculus [10]) was < 30%.

— ChEMBL document CHEMBL3882386, “Novel methods for identifying improved, non-sedating alpha-2 agonists” (2005)
